“Also recorded” adds a separate entry of the source.
Tests used:
[1] = tested on: other members of the interleukin-1 family, including interleukin-1 alpha; details: cited from earlier work
[2] = tested on: production of interleukin-1β; details: cited from earlier work
IL-1β in PC3-ML cells = assay: IL-1β silencing by stable shRNA transduction in PC3-ML cells (Western blot, ELISA); assay type: cell-based, human; details: stable transduction of shRNA
Method: Mission TRC lentiviral shRNA vectors (Sigma-Aldrich) were used to knock down IL1-β. The following shRNA sequence was used:
Lentiviral particles were used to infect […] cell cultures, overnight in the presence of 8 μg/ml polybrene (Millipore). The successful infected cells were selected for the ability to proliferate in media containing G418 ([…]). The resulting cells were characterized by Western blot analysis using an antibody against IL1β.
(§1) Cell lysates were obtained and SDS-PAGE and Western Blot analysis performed as previously described, with few modifications. Membranes were blotted with antibodies targeting PDGFRα, PDGFRβ, IL1-β (SC-7884, Santa Cruz, Dallas, Tex.), Actin (A-2066, Sigma-Aldrich, St. Louis, Mo.), COX-2 (ab15191, AbCam, Cambridge, UK) Elafin (SC-20637, Santa Cruz) and GAPDH (DI6H11, Cell Signaling Technology, Beverly, Mass.). Primary antibody binding was detected using an HRP-conjugated secondary antibody (Pierce). Chemiluminescence signals were obtained using SuperSignal West Femto reagents (Pierce) and detected with the Fluorochem 8900 imaging system and relative software (Alpha Innotech).
The concentrations of IL-1β and CXCL6 were measured by ELISA as described in the manufacturers' protocols. […] The supernatant was then collected and the protein concentration was measured using Quantikine kits (R&D systems).

[3] = tested on: PC3-ML bone-metastatic prostate cancer cells; assay: Animal model of metastasis, intracardiac inoculation of cancer cells; assay type: in vivo, mouse; details: mice inoculated via systemic arterial circulation with shRNA-transduced PC3-ML cells, four weeks post-inoculation
Method: Five week-old male immunocompromised mice (CBI 7-SCRF) were obtained from Taconic and housed in a germ-free barrier. At six weeks of age, mice were anesthetized with 100 mg/kg ketamine and 20 mg/kg xylazine and successively inoculated in the left cardiac ventricle with cancer cells (5×10^4 in 100 μl of serum-free DMEM/F12). Cell inoculation was performed using a 30-gauge needle connected to a 1 ml syringe. The delivery of the cell suspension in the systemic blood circulation was validated by the co-injection of blue-fluorescent 10 μm polystyrene beads (Invitrogen-Molecular Probes). Animals were randomly assigned to different experimental groups and sacrificed at specified time points following inoculation. Organs were harvested and prepared as described below and tissue sections inspected blindly for metastatic lesions. The homogeneous and numerically-consistent distribution of the beads in adrenal glands and lungs collected at necropsy and inspected by fluorescence microscopy were used as discrimination criteria for the inclusion of animals in the studies. […]
Bright-field and fluorescent images of skeletal metastases were acquired using an Olympus stereomicroscope coupled to an Olympus DT70 CCD color camera. Digital images were analyzed with ImageJ software and calibrated for measurement by obtaining a pixel to millimeter ratio. […]

[4] = tested on: mouse models of acute gout; details: in vivo; cited from earlier work
[5] = tested on: COX-2 expression in human bone Mesenchymal Stem Cells (MSCs); assay: COX-2 expression in human MSCs exposed to PC3-ML conditioned medium (Western blot); assay type: cell-based; details: Anakinra 10 μg/ml pre-treatment 30 minutes; MSCs exposed 48 hours to PC3-ML conditioned medium
Method: Bone marrow-derived Human Mesenchymal Stem cells (MSCs) (Lonza, Allendale, N.J.) were used between passage 5 and 8 and cultured in MSC growth medium (α-MEM (Invitrogen) supplemented with 10% FBS, 1 ng/ml bFGF (R&D Systems, Minneapolis, Minn.), and 0.1% gentamicin).
as §1
Conditioned media were obtained according to Li et al., 2012, Cancer Disc. 2:840-55. In brief, 7.5×10^5 PC3-ML cells were plated in 15 ml of DMEM supplemented with 10% fetal bovine serum and 0.1% gentamicin and cultured for five days. The medium from each dish was then collected and centrifuged at 2000 rpm for 10 minutes and then used fresh as described below. […]

Canakinumab: human monoclonal antibody targeted at interleukin-1 beta
cross-reactivity with other members of the interleukin-1 family, including interleukin-1 alpha [1]: no cross-reactivity

CSc1ccc(-c2nn(Cc3ccccc3)c(=O)cc2-c2ccc(Cl)cc2)cc1 [K-832, 2-benzyl-5-(4-chlorophenyl)-6-[4-(methylthio)phenyl]-2H-pyridazin-3-one]
inhibitory activity against production of interleukin-1β [2]: high inhibitory activity

5′-CGGCCAGGATATAACTGACTT-3′ (listed as DNA, chemistry not given here) [shRNA, Mission TRC lentiviral shRNA used to knock down IL1-β in PC3-ML cells]
IL-1β expression in PC3-ML cells after silencing (IL-1β in PC3-ML cells): expression levels lower than PC3-N cells | reduction of size of bone-metastatic tumors [3]: approximately 70%

XOMA-052: potent anti-IL-1β humanized neutralizing antibody
activity in mouse models of acute gout [4]: active

Anakinra: recombinant, non-glycosylated version of human IL-1 receptor antagonist prepared from genetically modified E. coli
Increase in COX-2 expression in MSCs induced by PC3-ML conditioned medium [5]: completely prevent; also recorded: inhibited
